Source: article PMC12207910 (European journal of pharmaceutical sciences : official …, 2024)
≈ marks a conversion by molar mass, not a printed value. Read-outs that look alike come from different tables or passages of the source.

How the values were obtained:
[1] = tested on: Staphylococcus pneumoniae (ATCC 49619); test: microbe, parasite or virus in culture; conditions: ATCC49619, read-out: MIC Staphylococcus pneumoniae (ATCC 49619)
[2] = tested on: Enterococcus faecium (ATCC 27270); test: microbe, parasite or virus in culture; conditions: ATCC27270, read-out: MIC Enterococcus faecium (ATCC 27270)
A. fumigatus (Af-293) [3] = test: microbe, parasite or virus in culture; type: cell-based; conditions: Aspergillus fumigatus, read-out: MIC A. fumigatus (Af-293)
A. fumigatus (Af-293) [4] = test: microbe, parasite or virus in culture; type: cell-based, Aspergillus fumigatus; conditions: Aspergillus fumigatus
A. fumigatus (Af-293) [5] = test: Kill kinetics assay; type: cell-based, Aspergillus fumigatus; conditions: MIC and 4×MIC, compared to 3b and 4b

CN[C@H](CC(C)C)C(=O)N[C@H]1C(=O)N[C@@H](CC(N)=O)C(=O)N[C@H]2C(=O)N[C@H]3C(=O)N[C@H](C(=O)N[C@H](C(=O)O)c4cc(O)cc(O)c4-c4cc3ccc4O)[C@H](O)c3ccc(c(Cl)c3)Oc3cc2cc(c3O[C@@H]2O[C@H](CO)[C@@H](O)[C@H](O)[C@H]2O[C@H]2C[C@](C)(N)[C@H](O)[C@H](C)O2)Oc2ccc(cc2Cl)[C@H]1O [Vancomycin]
MIC [1]: 3.1 mg/L (≈ 2.14 µM)
MIC [2]: 1.5 mg/L (≈ 1.04 µM)

C[C@@H]1[C@H](O)[C@@H](C)/C=C/C=C/C=C/C=C/C=C/C=C/C=C/[C@H](O[C@@H]2O[C@H](C)[C@@H](O)[C@H](N)[C@@H]2O)C[C@@H]2O[C@](O)(C[C@@H](O)C[C@@H](O)[C@H](O)CC[C@@H](O)C[C@@H](O)CC(=O)O[C@H]1C)C[C@H](O)[C@H]2C(=O)O [Amphotericin B, reference compound]
MIC (A. fumigatus (Af-293) [3]): 0.7 mg/L (≈ 0.758 µM)
MIC (A. fumigatus (Af-293) [4]; read-out: MIC CaCl2): 0.7 mg/L (≈ 0.758 µM)
MIC (A. fumigatus (Af-293) [4]; read-out: MIC Control): 0.7 mg/L (≈ 0.758 µM)
MIC (A. fumigatus (Af-293) [4]; read-out: MIC FBS (25%)): 0.7 mg/L (≈ 0.758 µM)
MIC (A. fumigatus (Af-293) [4]; read-out: MIC KCl): 0.7 mg/L (≈ 0.758 µM)
MIC (A. fumigatus (Af-293) [4]; read-out: MIC MgCl2): 1.5 mg/L (≈ 1.62 µM)
MIC (A. fumigatus (Af-293) [4]; read-out: MIC NH4Cl): 0.7 mg/L (≈ 0.758 µM)
MIC (A. fumigatus (Af-293) [4]; read-out: MIC NaCl): 0.7 mg/L (≈ 0.758 µM)
fungicidal effect in kill kinetics (A. fumigatus (Af-293) [5]): mild fungicidal effect
